Experimental data reported in US12491185B2, “Inhibitors of mPTP” (NRG Therapeutics Ltd, priority 2023, dated 2025).

Columns and labels:
mPTP [1] = assay: mPTP activity assay in isolated rat brain mitochondria; type: biochemical; conditions: fluorescence at 10 min timepoint
Method in brief: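 Fresh brain mitochondria from female Sprague Dawley rats, digitonin-washed, in pH 7.4 mannitol/MOPS/KCl buffer with pyruvate, malate, ADP, oligomycin A and 2 μM Fluo5N. Preincubated with compounds 10 min at RT. Fluo5N fluorescence then read every 3 sec for 10 min on FLIPR Tetra.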

mPTP [2] = assay: mPTP activity (Ca2+ retention) assay in isolated rat liver mitochondria; type: biochemical; conditions: examples tested by different contract research organisations, believed comparable
Method in brief: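 pIC50 was taken from Fluo5N fluorescence at 10 min after a 75 μM CaCl2 bolus, scaled between DMSO (0%) and 5 μM cyclosporin A (100%). Compounds, ten half-log concentrations from 30 μM to 1 nM final, sat 10 min at RT with fresh female Sprague Dawley rat liver mitochondria energized by succinate plus rotenone.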

mPTP Rat brain pIC50 (mPTP [1])	mPTP Rat liver pIC50 (mPTP [2])	SMILES
7.55	6.44	Cn1nc(C(=O)NCC2(Cc3ccccc3F)CCC2)[nH]c1=O [Example 20, N-((1-(2-fluorobenzyl)cyclobutyl)methyl)-1-methyl-5-oxo-4,5-dihydro-1H-1,2,4-triazole-3-carboxamide]
6.45	6.04	Cn1nc(C(=O)NCC2(Cc3cc(F)cc(F)c3)CCC2)[nH]c1=O [Example 116, N-((1-(3,5-difluorobenzyl)cyclobutyl)methyl)-1-methyl-5-oxo-4,5-dihydro-1H-1,2,4-triazole-3-carboxamide]
6.51	5.63	Cn1nc(C(=O)NCC2(Cc3ccccc3)CC2)[nH]c1=O [Example 33, N-((1-benzylcyclopropyl)methyl)-1-methyl-5-oxo-4,5-dihydro-1H-1,2,4-triazole-3-carboxamide]
7.54	6.31	Cn1nc(C(=O)NCC2(Cc3ccc(F)cc3F)CCCC2)[nH]c1=O [Example 92, N-((1-(2,4-Difluorobenzyl)cyclopentyl)methyl)-1-methyl-5-oxo-4,5-dihydro-1H-1,2,4-triazole-3-carboxamide]
6.65	5.85	O=C(NCC1(Cc2cccc(F)c2)CCC1)c1ccc(=O)[nH]n1 [Example 177]
7.68	5.89	Cn1nc(C(=O)NCC2(Cc3cccc(Br)c3)CCC2)[nH]c1=O [Example 99, N-((1-(3-Bromobenzyl)cyclobutyl)methyl)-1-methyl-5-oxo-4,5-dihydro-1H-1,2,4-triazole-3-carboxamide]
7.84	6.34	Cc1ccccc1CC1(CNC(=O)c2nn(C)c(=O)[nH]2)CCC1 [Example 29, 1-methyl-N-((1-(2-methylbenzyl)cyclobutyl)methyl)-5-oxo-4,5-dihydro-1H-1,2,4-triazole-3-carboxamide]
6.30	5.24	O=C(NCC1(Cc2ccc(F)cc2F)CC12CC2)c1noc(=O)[nH]1 (single isomer, unassigned) [Example 234]
7.1	6.67	Cn1nc(C(=O)NCC2(Cc3ccc(F)cc3F)CCOCC2)[nH]c1=O [Example 121]
6.32	5.99	Cn1nc(C(=O)NCC2(Cc3cccc(C#N)c3)CCC2)[nH]c1=O [Example 100, N-((1-(3-Cyanobenzyl)cyclobutyl)methyl)-1-methyl-5-oxo-4,5-dihydro-1H-1,2,4-triazole-3-carboxamide]
6.48	5.18	CN(CC1(Cc2ccccc2)CCC1)C(=O)c1cncc(O)n1 [Example 11, N-((1-benzylcyclobutyl)methyl)-6-hydroxy-N-methylpyrazine-2-carboxamide]
7.35	5.41	Cc1ccccc1CC1(CNC(=O)c2cncc(=O)[nH]2)CCC1 [Example 19, N-((1-(2-methylbenzyl)cyclobutyl)methyl)-6-oxo-1,6-dihydropyrazine-2-carboxamide]
7.24	6.28	Cn1nc(C(=O)NCC2(Cc3ccc(F)c(F)c3F)CCC2)[nH]c1=O [Example 156]
6.94	5.63	CCn1nc(C(=O)NCC2(Cc3ccccc3)CCC2)[nH]c1=O [Example 14, N-((1-benzylcyclobutyl)methyl)-1-ethyl-5-oxo-4,5-dihydro-1H-1,2,4-triazole-3-carboxamide]
6.56	5.77	Cc1c(O)cncc1C(=O)NCC1(Cc2ccccc2)CCC1 [Example 4, N-((1-benzylcyclobutyl)methyl)-5-hydroxy-4-methylnicotinamide]
6.51	6.85	Cn1nc(C(=O)NCC2(Cc3cc(F)ccc3F)CCC2)[nH]c1=O [Example 81, N-((1-(2,5-Difluorobenzyl)cyclobutyl)methyl)-1-methyl-5-oxo-4,5-dihydro-1H-1,2,4-triazole-3-carboxamide]

More lines, now with the values behind:

SMILES	mPTP Rat brain pIC50 (mPTP [1])	mPTP Rat liver pIC50 (mPTP [2])
O=C(NCC1(Cc2ccccc2)CCC1)c1cncc(O)c1 [Example 1, N-((1-benzylcyclobutyl)methyl)-5-hydroxynicotinamide]	7.27	6.10
CC[C@@H](Cc1ccc(F)cc1F)C(C)NC(=O)c1nn(C)c(=O)[nH]1 (single isomer, unassigned) [Example 224]	5.04	4.52
O=C(NC[C@H](Cc1ccc(F)cc1F)C1CC1)c1nncc(=O)[nH]1 [Example 195, (R)-N-(2-cyclopropyl-3-(2,4-difluorophenyl)propyl)-5-oxo-4,5-dihydro-1,2,4-triazine-3-carboxamide]	7.43	6.37
CCC(C)(CNC(=O)c1nn(C)c(=O)[nH]1)Cc1ccccc1 (stereo not shown) [Example 44, N-(2-benzyl-2-methylbutyl)-1-methyl-5-oxo-4,5-dihydro-1H-1,2,4-triazole-3-carboxamide]	7.41	6.23
CC(CNC(=O)c1nccc(=O)[nH]1)(Cc1ccc(F)cc1)C1CC1 (single isomer, unassigned) [Example 251]	7.06	6.21
CC(C)(CNC(=O)c1ccc(=O)[nH]n1)Cc1ccccc1 [Example 56]	6.73	5.76
CC(CNC(=O)c1ncc(F)c(=O)[nH]1)(Cc1ccc(F)cc1F)C1CC1 (single isomer, unassigned) [Example 257, N-[2-cyclopropyl-3-(2,4-difluorophenyl)-2-methylpropyl]-5-fluoro-4-oxo-3H-pyrimidine-2-carboxamide]	8.37	6.82
Cn1nc(C(=O)NC[C@H](Cc2ccc(F)cc2F)CC(F)(F)F)[nH]c1=O [Example 245, (R)-N-(2-(2,4-difluorobenzyl)-4,4,4-trifluorobutyl)-1-methyl-5-oxo-4,5-dihydro-1H-1,2,4-triazole-3-carboxamide]	7.44	6.13
Cn1nc(C(=O)NCC(C)(Cc2c(F)cc(F)cc2F)C2CC2)[nH]c1=O (single isomer, unassigned) [Example 228, N-[2-cyclopropyl-2-methyl-3-(2,4,6-trifluorophenyl)propyl]-1-methyl-5-oxo-4H-1,2,4-triazole-3-carboxamide]	7.12	6.16
CC(CNC(=O)c1noc(=O)[nH]1)(Cc1ccc(F)cc1F)C1CC1 (single isomer, unassigned) [Example 273]	7.92	6.50
CC[C@@H](Cc1ccc(F)cc1F)C(C)NC(=O)c1nn(C)c(=O)[nH]1 (single isomer, unassigned) [Example 223]	7.60	6.90
O=C(NC[C@H](Cc1ccc(F)c(F)c1)C1CC1)c1noc(=O)[nH]1 [Example 203]	7.66	6.48
Cn1nc(C(=O)NC[C@@H](Cc2ccc(F)cc2Cl)C2CC2)[nH]c1=O [Example 242]	5.39	4.95
